Reference: ChEMBL document CHEMBL5715954, “Silencing c-Myc translation as a therapeutic strategy through targeting PI3Kδ and CK1ε in hematological malignancies” (Blood, 2017)

Tests used:
Parameters in all cases: scale not given: the % may be the effect or the level left
[1] = target: Bone morphogenetic protein receptor type-1B (Homo sapiens) (UniProt O00238); assay: Inhibition of human ALK6 assessed as enzyme activity at 1 uM using casein as substrate preincubated for 20 mins followed by [gamma-33P]-ATP addition and measured after 120 mins by radiometric Hot-SpotSM Kinase assay relative to control
Chain of Bone morphogenetic protein receptor type-1B (Homo sapiens) (O00238 whole entry): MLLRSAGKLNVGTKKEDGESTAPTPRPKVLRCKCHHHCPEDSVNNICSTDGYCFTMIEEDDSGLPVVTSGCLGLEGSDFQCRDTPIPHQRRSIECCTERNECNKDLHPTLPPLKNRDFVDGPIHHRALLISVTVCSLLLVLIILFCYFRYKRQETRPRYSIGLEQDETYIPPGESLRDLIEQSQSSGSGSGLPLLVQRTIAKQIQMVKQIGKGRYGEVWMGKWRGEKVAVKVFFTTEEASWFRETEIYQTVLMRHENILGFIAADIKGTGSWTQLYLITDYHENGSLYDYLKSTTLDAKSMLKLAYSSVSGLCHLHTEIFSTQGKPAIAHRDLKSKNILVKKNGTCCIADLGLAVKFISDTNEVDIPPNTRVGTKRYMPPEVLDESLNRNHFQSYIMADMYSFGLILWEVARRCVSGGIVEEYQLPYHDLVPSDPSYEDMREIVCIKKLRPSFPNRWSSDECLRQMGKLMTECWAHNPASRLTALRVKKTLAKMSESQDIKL

[2] = target: Glycogen synthase kinase-3 alpha (Homo sapiens) (UniProt P49840); assay: Inhibition of human GSK3a assessed as enzyme activity at 1 uM using YRRAAVPPSPSLSRHSSPHQ(pS)EDEEE as substrate preincubated for 20 mins followed by [gamma-33P]-ATP addition and measured after 120 mins by radiometric Hot-SpotSM Kinase assay relative to control
Chain of Glycogen synthase kinase-3 alpha (Homo sapiens) (P49840 2-483 limits assumed): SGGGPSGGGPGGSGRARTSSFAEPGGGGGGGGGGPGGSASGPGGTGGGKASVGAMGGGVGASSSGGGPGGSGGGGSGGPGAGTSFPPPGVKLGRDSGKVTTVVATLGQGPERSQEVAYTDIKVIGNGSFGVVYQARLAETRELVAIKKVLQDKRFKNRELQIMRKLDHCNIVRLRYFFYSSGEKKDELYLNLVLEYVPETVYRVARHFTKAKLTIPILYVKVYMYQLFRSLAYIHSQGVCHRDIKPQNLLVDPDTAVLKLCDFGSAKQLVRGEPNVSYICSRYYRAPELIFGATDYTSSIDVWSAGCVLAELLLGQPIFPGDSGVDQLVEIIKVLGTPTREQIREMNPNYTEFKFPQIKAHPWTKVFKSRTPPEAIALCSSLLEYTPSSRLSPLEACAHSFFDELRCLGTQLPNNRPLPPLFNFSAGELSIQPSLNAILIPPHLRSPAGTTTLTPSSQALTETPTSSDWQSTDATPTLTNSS

[3] = target: Tyrosine-protein kinase JAK2 (Homo sapiens) (UniProt O60674); assay: Inhibition of human JAK2 assessed as enzyme activity at 1 uM using poly[Glu:Tyr] (4:1) as substrate preincubated for 20 mins followed by [gamma-33P]-ATP addition and measured after 120 mins by radiometric Hot-SpotSM Kinase assay relative to control
Chain of Tyrosine-protein kinase JAK2 (Homo sapiens) (O60674 whole entry): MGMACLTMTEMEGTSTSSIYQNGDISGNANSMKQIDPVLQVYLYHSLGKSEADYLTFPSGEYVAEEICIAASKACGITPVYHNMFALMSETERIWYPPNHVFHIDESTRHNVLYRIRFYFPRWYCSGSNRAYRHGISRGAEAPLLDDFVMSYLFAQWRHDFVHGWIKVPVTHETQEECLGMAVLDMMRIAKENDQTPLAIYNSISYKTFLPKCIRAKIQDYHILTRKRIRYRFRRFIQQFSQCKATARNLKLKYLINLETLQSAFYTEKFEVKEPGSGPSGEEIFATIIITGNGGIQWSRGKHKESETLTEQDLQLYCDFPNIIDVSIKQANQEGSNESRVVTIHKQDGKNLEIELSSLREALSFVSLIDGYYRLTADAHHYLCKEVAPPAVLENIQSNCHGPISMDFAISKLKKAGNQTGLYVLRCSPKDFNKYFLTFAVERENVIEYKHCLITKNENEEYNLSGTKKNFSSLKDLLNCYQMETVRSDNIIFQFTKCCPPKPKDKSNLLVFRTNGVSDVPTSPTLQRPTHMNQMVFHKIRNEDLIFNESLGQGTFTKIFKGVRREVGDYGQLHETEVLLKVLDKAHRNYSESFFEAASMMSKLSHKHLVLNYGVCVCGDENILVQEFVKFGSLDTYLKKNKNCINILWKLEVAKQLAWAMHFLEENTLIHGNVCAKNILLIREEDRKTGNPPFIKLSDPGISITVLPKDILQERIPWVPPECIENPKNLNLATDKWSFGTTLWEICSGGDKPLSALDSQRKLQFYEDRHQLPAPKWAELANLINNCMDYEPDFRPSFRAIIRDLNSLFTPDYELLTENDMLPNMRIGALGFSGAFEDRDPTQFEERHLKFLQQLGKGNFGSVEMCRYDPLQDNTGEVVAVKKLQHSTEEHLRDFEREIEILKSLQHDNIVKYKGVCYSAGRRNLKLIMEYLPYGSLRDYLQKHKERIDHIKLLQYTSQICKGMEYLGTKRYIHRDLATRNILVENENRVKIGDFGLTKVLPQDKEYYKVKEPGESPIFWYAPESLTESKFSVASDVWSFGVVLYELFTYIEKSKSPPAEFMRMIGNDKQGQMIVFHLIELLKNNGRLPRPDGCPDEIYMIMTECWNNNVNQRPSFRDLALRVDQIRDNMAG

[4] = target: Ribosomal protein S6 kinase alpha-4 (Homo sapiens) (UniProt O75676); assay: Inhibition of human MSK2 assessed as enzyme activity at 1 uM using GRPRTSSFAEG as substrate preincubated for 20 mins followed by [gamma-33P]-ATP addition and measured after 120 mins by radiometric Hot-SpotSM Kinase assay relative to control
Chain of Ribosomal protein S6 kinase alpha-4 (Homo sapiens) (O75676 whole entry, looked up): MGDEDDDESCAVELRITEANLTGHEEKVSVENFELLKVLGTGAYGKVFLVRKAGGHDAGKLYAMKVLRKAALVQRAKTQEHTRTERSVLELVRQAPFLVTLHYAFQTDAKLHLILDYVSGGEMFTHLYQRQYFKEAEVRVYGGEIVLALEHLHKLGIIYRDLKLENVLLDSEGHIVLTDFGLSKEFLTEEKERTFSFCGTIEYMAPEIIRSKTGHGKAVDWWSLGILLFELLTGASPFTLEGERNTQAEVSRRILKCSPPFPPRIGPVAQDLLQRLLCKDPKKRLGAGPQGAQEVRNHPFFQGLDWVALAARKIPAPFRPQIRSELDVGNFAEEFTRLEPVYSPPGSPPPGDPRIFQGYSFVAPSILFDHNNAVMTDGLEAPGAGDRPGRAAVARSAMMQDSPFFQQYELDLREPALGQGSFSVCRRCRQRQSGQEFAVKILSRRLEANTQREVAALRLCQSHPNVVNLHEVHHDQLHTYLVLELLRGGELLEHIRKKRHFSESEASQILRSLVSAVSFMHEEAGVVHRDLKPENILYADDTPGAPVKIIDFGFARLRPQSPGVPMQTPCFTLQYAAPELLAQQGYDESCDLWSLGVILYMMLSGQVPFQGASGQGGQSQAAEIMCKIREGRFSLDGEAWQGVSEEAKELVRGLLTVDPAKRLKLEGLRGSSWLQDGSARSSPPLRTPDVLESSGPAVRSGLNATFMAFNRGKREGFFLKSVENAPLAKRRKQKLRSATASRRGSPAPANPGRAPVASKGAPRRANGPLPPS

[5] = target: T1, Serine/threonine-protein kinase Nek9 (Homo sapiens) (UniProt Q8TD19); assay: Inhibition of human NEK9 assessed as enzyme activity at 1 uM using myelin basic protein as substrate preincubated for 20 mins followed by [gamma-33P]-ATP addition and measured after 120 mins by radiometric Hot-SpotSM Kinase assay relative to control
T1 sequence (whole entry): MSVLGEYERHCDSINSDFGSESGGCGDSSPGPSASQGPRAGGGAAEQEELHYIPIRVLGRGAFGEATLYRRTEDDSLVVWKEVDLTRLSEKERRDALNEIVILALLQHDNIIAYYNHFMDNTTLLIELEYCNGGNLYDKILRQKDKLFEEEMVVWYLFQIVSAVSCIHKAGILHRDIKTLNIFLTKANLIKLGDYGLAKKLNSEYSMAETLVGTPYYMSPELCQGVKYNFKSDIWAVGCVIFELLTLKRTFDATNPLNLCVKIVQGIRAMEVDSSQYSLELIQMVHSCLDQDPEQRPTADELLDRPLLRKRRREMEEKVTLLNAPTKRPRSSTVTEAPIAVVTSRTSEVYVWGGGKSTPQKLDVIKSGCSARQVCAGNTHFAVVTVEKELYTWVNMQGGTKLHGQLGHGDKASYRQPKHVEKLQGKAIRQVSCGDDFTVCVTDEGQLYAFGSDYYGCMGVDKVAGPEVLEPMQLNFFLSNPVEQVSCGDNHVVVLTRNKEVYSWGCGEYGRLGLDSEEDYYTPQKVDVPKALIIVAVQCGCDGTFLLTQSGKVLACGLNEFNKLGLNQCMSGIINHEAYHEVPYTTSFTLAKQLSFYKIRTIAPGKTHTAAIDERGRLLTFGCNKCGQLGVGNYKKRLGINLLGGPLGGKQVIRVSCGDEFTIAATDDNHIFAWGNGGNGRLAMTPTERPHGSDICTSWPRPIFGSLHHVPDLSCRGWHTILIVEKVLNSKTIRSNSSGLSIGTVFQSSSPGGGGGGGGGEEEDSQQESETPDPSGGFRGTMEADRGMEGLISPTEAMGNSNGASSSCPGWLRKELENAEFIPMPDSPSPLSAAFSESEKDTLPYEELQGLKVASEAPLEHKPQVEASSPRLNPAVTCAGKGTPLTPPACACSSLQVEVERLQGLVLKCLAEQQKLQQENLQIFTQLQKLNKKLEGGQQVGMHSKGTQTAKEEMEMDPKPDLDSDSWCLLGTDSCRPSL

[6] = target: Serine/threonine-protein kinase PAK 5 (Homo sapiens) (UniProt Q9P286); assay: Inhibition of human PAK5 assessed as enzyme activity at 1 uM using RRRLSFAEPG as substrate preincubated for 20 mins followed by [gamma-33P]-ATP addition and measured after 120 mins by radiometric Hot-SpotSM Kinase assay relative to control
Chain of Serine/threonine-protein kinase PAK 5 (Homo sapiens) (Q9P286 whole entry, looked up): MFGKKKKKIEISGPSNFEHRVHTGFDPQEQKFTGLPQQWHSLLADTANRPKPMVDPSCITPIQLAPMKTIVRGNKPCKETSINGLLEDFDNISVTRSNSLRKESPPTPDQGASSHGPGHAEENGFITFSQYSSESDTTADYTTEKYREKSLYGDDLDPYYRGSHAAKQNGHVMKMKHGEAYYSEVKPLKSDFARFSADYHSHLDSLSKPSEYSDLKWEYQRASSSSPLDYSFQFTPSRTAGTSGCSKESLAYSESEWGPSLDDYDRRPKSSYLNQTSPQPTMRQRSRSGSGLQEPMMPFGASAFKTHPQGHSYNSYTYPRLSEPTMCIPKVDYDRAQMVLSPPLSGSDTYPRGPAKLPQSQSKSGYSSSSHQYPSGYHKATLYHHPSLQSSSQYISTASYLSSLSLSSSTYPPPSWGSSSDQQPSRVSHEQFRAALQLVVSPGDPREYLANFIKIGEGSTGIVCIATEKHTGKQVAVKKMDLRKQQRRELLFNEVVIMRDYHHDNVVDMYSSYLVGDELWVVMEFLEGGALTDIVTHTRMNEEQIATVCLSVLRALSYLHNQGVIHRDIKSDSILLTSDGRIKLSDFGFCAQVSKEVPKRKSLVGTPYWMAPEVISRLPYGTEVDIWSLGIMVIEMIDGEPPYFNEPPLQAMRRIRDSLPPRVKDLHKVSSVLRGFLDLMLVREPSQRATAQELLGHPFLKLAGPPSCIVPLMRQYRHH

[7] = target: RAF proto-oncogene serine/threonine-protein kinase (Homo sapiens) (UniProt P04049); assay: Inhibition of human RAF1 assessed as enzyme activity at 1 uM using MEK1 (K97R) as substrate preincubated for 20 mins followed by [gamma-33P]-ATP addition and measured after 120 mins by radiometric Hot-SpotSM Kinase assay relative to control
Chain of RAF proto-oncogene serine/threonine-protein kinase (Homo sapiens) (P04049 whole entry): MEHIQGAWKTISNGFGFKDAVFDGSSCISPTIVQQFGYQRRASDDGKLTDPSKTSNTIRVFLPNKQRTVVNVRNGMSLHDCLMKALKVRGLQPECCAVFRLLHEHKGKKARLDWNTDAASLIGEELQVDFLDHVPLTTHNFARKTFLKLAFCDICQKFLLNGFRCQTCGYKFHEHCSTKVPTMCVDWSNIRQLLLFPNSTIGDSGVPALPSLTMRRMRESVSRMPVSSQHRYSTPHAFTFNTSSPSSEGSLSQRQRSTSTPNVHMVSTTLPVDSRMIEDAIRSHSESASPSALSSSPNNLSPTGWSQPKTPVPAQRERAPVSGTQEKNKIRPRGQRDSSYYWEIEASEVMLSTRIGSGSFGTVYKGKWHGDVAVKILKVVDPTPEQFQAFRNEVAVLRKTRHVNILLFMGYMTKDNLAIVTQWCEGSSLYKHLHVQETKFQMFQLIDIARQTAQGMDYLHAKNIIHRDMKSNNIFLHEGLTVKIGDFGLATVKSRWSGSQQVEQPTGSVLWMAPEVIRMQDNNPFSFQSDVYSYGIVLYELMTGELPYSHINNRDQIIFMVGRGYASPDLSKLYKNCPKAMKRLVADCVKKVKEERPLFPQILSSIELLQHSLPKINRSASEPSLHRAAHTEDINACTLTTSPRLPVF

[8] = target: Serine/threonine-protein kinase 32C (Homo sapiens) (UniProt Q86UX6); assay: Inhibition of human STK32C assessed as enzyme activity at 1 uM using myelin basic protein as substrate preincubated for 20 mins followed by [gamma-33P]-ATP addition and measured after 120 mins by radiometric Hot-SpotSM Kinase assay relative to control
Chain of Serine/threonine-protein kinase 32C (Homo sapiens) (Q86UX6 whole entry): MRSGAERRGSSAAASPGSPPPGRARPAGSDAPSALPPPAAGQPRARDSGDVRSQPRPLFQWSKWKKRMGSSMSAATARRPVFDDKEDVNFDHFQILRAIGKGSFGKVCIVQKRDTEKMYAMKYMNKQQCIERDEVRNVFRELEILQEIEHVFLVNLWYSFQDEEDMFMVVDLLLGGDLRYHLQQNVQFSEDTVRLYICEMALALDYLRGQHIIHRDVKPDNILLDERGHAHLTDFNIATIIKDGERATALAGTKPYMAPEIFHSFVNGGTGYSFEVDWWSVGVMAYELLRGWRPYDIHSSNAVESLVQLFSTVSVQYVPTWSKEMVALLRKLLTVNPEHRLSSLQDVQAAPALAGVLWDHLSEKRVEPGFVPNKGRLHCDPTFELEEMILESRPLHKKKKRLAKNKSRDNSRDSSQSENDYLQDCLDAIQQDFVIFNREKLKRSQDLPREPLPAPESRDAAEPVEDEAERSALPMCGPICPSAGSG

Q: With `CC[C@H](Nc1ncnc2[nH]cnc12)c1nc2cccc(F)c2c(=O)n1-c1ccccc1` as the compound, how does the Activity [1] read?
A: 103%

Q: What about the Activity [2] of the same compound?
A: 93.7%

Q: And the Activity [3]?
A: 95.7%

Q: And the Activity [4]?
A: 98.1%

Q: What about the Activity [5] of the same compound?
A: 95.1%

Q: And the Activity [6]?
A: 101%

Q: And the Activity [7]?
A: 95.3%

Q: And the Activity [8]?
A: 105%

Q: Which Activity [1] does the source give for `C[C@H](Nc1ncnc2nc[nH]c12)c1cc2cccc(Cl)c2c(=O)n1-c1ccccc1` here?
A: 103%

Q: And the Activity [2]?
A: 95.3%

Q: And the Activity [3]?
A: 100%

Q: And the Activity [4]?
A: 98.8%

Q: What about the Activity [5] of the same compound?
A: 94.8%

Q: And the Activity [6]?
A: 101%

Q: And the Activity [7]?
A: 93.5%

Q: What about the Activity [8] of the same compound?
A: 94.3%

Q: Which Activity [1] does the source give for `CC(C)Oc1ccc(-c2nn([C@@H](C)c3oc4ccc(F)cc4c(=O)c3-c3cccc(F)c3)c3ncnc(N)c23)cc1F` [UMBRALISIB] here?
A: 110%

Q: What about the Activity [2] of the same compound?
A: 104%

Q: What about the Activity [3] of the same compound?
A: 92%

Q: And the Activity [4]?
A: 94.2%

Q: What about the Activity [5] of the same compound?
A: 91.6%

Q: What about the Activity [6] of the same compound?
A: 96.4%

Q: What about the Activity [7] of the same compound?
A: 93.1%

Q: And the Activity [8]?
A: 111%
